From patent US20030092616A1, “STAT6 activation gene” (priority 2001, published 2003)

What was measured:
STAT6 [1] = experiment: Screening compounds inhibiting promotion of STAT6 activity (STAT6 reporter activity); type: cell-based; conditions: 20 μM, mouse IL-4 1 ng/ml, 6 h; for inhibition of expression of the STAT6 reporter gene, control plasmid well: NIH3T3 cells with control plasmid pcDNA3.1 (+); for inhibition of expression of the STAT6 reporter gene (relative luciferase activity): NIH3T3 cells with plasmid for STAT6 activation-promoting protein of SEQ ID NO: 3, 17, 19, 218, 432 or 472, or nucleotide of SEQ ID NO: 64, FIGS. 1 to 7
Protocol: NIH3T3 cells were seeded on 10% FBS containing IMDM medium in a 96-well cell culture plate to a final cell density of 1×10^4 cells/100 μl/well, and cultured for 24 hours at 37° C. in the presence of 5% CO2. Then, 30 ng of the plasmid containing the nucleotide encoding the STAT6 activation-promoting protein of SEQ ID NO: 3, 17, 19, 218, 432 or 472, or the nucleotide of SEQ ID NO: 64, and 100 ng of the luciferase reporter plasmid having the STAT6 response sequence were cotransfected into the cells in a well using FuGENE 6. […] After 30 min of culture at 37° C., followed by 6 hours of culture with addition of mouse IL-4 to a final concentration of 1 ng/ml, the reporter activity was measured using PIKKA GENE LT2.0.

STAT6 [2] = experiment: Screening of full-length cDNA clones for promotion of STAT6 activation (luciferase reporter N4×8-luc); type: cell-based; conditions: NIH3T3 cells cotransfected with N4×8-luc reporter and cDNA plasmid; 48 h culture, then mouse IL-4 0.5 ng/ml for 6 h
Outline: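 Promotion of STAT6 activation scored as increase in luciferase signal over null-vector control cells. NIH3T3 cells carried N4×8-luc (100 ng) plus cDNA clone; after 48 h culture, 6 h stimulation with 0.5 ng/ml (final) mouse IL-4 preceded reading.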

Molecule | inhibition of expression of the STAT6 reporter gene, control plasmid well (STAT6 [1]) | inhibition of expression of the STAT6 reporter gene (relative luciferase activity) (STAT6 [1]) | Activity = (luciferase activity of the gene of each SEQ ID NO:)/(luciferase activity of pME18S-FL3) (STAT6 [2])
N#CC(C#N)=Cc1ccc(O)c(O)c1 [AG18] | no expression was inhibited at all | inhibited | 
N#C/C(=C/c1ccc(O)c(O)c1)C(=O)NCc1ccccc1 [AG490] | no expression was inhibited at all | inhibited | 
455 (nucleic acid, listed as Homo sapiens, CDS (1)..(765)) ATGGTGTCCTGGATGATCTCCAGAGCCGTGGTGCTGGTGTTTGGAATGCTTTATCCTGCATATTATTCATACAAAGCTGTGAAAACAAAAAACGTGAAGGAATATGTTCGATGGATGATGTACTGGATTGTTTTTGCTCTCTATACTGTGATTGAAACAGTAGCCGATCAAACAGTTGCTTGGTTTCCCCTGTACTATGAGCTGAAGATTGCTTTTGTCATATGGCTGCTTTCTCCCTATACCAAAGGAGCAAGTTTAATATATAGAAAATTCCTTCATCCACTTCTTTCTTCAAAGGAAAGGGAGATTGATGATTATATTGTACAAGCAAAGGAACGAGGCTATGAAACCATGGTAAACTTTGGACGGCAAGGTTTAAACCTTGCAGCTACTGCTGCTGTTACTGCAGCAGTAAAGAGCCAAGGAGCAATAACTGAACGTTTAAGAAGCTTCAGTATGCATGATTTAACAACTATCCAAGGTGATGAGCCTGTGGGACAAAGACCATACCAACCTCTACCAGAAGCAAAAAAGAAAAGTAAACCAGCCCCCAGTGAATCAGCAGGTTATGGAATTCCACTGAAAGACGGAGATGAGAAAACAGATGAAGAAGCAGAGGGGCCATATTCAGATAATGAGATGTTAACACACAAAGGGCTTCGAAGATCGCAAAGCATGAAATCTGTGAAAACCACCAAAGGCCGCAAAGAGGTGCGGTACGGGTCACTAAAATACAAAGTGAAGAAACGACCACAAGTGTATTTTTAGTCATCTACACGTCAAATATCCC |  |  | 3.3
481 (nucleic acid, listed as Homo sapiens, CDS (112)..(1224)) GAAAGAGCCGAGTGGGCTCGAGGCCGACGCGACCATCGTTTGTCGACGCCGCTGCCACCGCCTGCCTGAGAGAAGTCGTCGCGGCCGACCCCGTCGCCTCCGCCGGCTACCATGTCCGCCCAGGCGCAGATGCGGGCCCTGCTGGACCAGCTCATGGGCACGGCTCGGGACGGAGACGAAACCAGACAGAGGGTCAAGTTTACAGATGACCGTGTCTGCAAGAGTCACCTTCTGGACTGCTGCCCCCATGACATCCTGGCTGGGACGCGCATGGATTTAGGAGAATGTACCAAAATCCACGACTTGGCCCTCCGAGCAGATTATGAGATTGCAAGTAAAGAAAGAGACCTGTTTTTTGAATTAGATGCAATGGATCACTTGGAGTCCTTTATTGCTGAATGTGATCGGAGAACTGAGCTCGCCAAGAAGCGGCTGGCAGAAACACAGGAGGAAATCAGTGCGGAAGTTTCTGCAAAGGCAGAAAAAGTACATGAGTTAAATGAAGAAATAGGAAAACTCCTTGCTAAAGCCGAACAGCTAGGGGCTGAAGGTAATGTGGATGAATCCCAGAAGATTCTTATGGAAGTGGAAAAAGTTCGTGCGAAGAAAAAAGAAGCTGAGGAAGAATACAGAAATTCCATGCCTGCATCCAGTTTTCAGCAGCAAAAGCTGCGTGTCTGCGAGGTCTGTTCAGCCTACCTTGGTCTCCATGACAATGACCGTCGCCTGGCAGACCACTTCGGTGGCAAGTTACACTTGGGGTTCATTCAGATCCGAGAGAAGCTTGATCAGTTGAGGAAAACTGTCGCTGAAAAGCAGGAGAAGAGAAATCAGGATCGCTTGAGGAGGAGAGAGGAGAGGGAACGGGAGGAGCGTCTGAGCAGGAGGTCGGGATCAAGAACCAGAGATCGCAGGAGGTCACGCTCCCGGGATCGGCGTCGGAGGCGGTCAAGATCTACCTCCCGAGAGCGACGGAAATTGTCCCGGTCCCGGTCCCGAGATAGACATCGGCGCCACCGCAGCCGTTCCCGGAGCCACAGCCGGGGACATCGTCGGGCTTCCCGGGACCGAAGTGCGAAATACAAGTTCTCCAGAGAGCGGGCATCCAGAGAGGAGTCCTGGGAGAGCGGGCGGAGCGAGCGAGGGCCCCCGGACTGGAGGCTTGAGAGCTCCAACGGGAAGATGGCTTCACGGAGGTCAGAAGAGAAGGAGGCCGGCGAGATCTGAACCCGTCTCCCGGGTGCTGTAAATAGTCTGATAAACGTTCACACAGTCTAAAATTACCCTTTATATTTGCTGAATACAACTCATCTTTTGTAGTTTAAAATTTCTATTGTTTTGGAGCTAGCTGTGAGTTTCTAGAAGTGTACAGAGTTGCTCCTGTGTTCCCGGGTCATGTTGAGTAGGAATAAATAAATCTGATGCTGCCTCCTGAGGCTGCGGGGGGTTT |  |  | 6.4
177 (nucleic acid, listed as Homo sapiens, CDS (136)..(903)) AAACGAAACGGTAACCAGCCCTGGGAAGCCCGCAAGAGGCCTCAGCGGTGGCCGTCCGAGCGCCGAGAGGTGAGGGTGCCCCCGCCTCACCTGCAGAGGGGCCGTTCCGGGCTCGAACCCGGCACCTTCCGGAAAATGGCGGCTGCCAGGCCCAGCCTGGGCCGAGTCCTCCCAGGATCCTCTGTCCTGTTCCTGTGTGACATGCAGGAGAAGTTCCGCCACAACATCGCCTACTTCCCACAGATCGTCTCAGTGGCTGCCCGCATGCTCAAGGTGGCCCGGCTGCTTGAGGTGCCAGTCATGCTGACGGAGCAGTACCCACAAGGCCTGGGCCCCACGGTGCCCGAGCTGGGGACTGAGGGCCTTCGGCCGCTGGCCAAGACCTGCTTCAGCATGGTGCCTGCCCTGCAGCAGGAGCTGGACAGTCGGCCCCAGCTGTGCTCTGTGCTGCTCTGTGGCATTGAGGCACAGGCCTGCATCTTGAACACGACCCTGGACCTCCTAGACCGGGGGCTGCAGGTCCATGTGGTGGTGGACGCCTGCTCCTCACGCAGCCAGGTGGACCGGCTGGTGGCTCTGGCCCGCATGAGACAGAGTGGTGCCTTCCTCTCCACCAGCGAAGGGCTCATTCTGCAGCTTGTGGGCGATGCCGTCCACCCCCAGTTCAAGGAGATCCAGAAACTCATCAAGGAGCCCGCCCCAGACAGCGGACTGCTGGGCCTCTTCCAAGGCCAGCTGCTCCCGGAAATGCAAATGAGACTCCTGGAAACTGGGTGGGAATTGGCTGAGCCGAGATGGAGGCGGGGCTCGGCCCCGGGCCACTTCACGGGGCGGGAAGGGGAGGGGAAGAAGAGTCTCAGACTGTGGGACACGGACTCGCAGAATAAACATATATGTGGCTGTG |  |  | 22.6
